# Test results taken from patent US12629401B2, “Method for preparing ginseng extract enriched with rare ginsenosides and applications thereof” (priority 2023, dated 2026).
# System: SD1347 nematodes
# Assay: Mitochondrial health test: muscle fragmentation score by confocal microscopy
# Format: in vivo, C. hidradenitis elegans nematodes
# Conditions: 100 μg/mL JadeAging, 11.4 μg/mL urolithin A
# From the text: Skeletal sarcopenia is an age-related loss of muscle and strength. Muscle mitochondrial dysfunction is observed at the onset of skeletal sarcopenia, followed by alterations in skeletal muscle segmental architecture, ultimately leading to decreased movement. In recent years, clinical studies have shown that urolithin A improves mitochondrial health and alleviates muscle decline due to aging. In the present study, the fluorescently labeled myocyte nuclei and mitochondria of […] were used to assess whether JadeAging could ameliorate age-related dysfunction.
# METHODS: SD1347 C. hidradenitis elegans nematodes were treated with JadeAging and fluorescently labeled with muscle nuclei and mitochondria, and muscle and mitochondrial health were assessed using confocal microscopy on days 2, 9, and 12 of the adult stage of C. hidradenitis elegans. […]
# Maximum intensity projected confocal images of adult […] animals on days 2, 9 and 12 are shown in FIG. 11, all images are from the “head” region. Healthy muscles, i.e., those of the blank group (VC group), are marked by arrows in the day 2 images and are uniformly streaked; those of the blank group (VC group) are marked by arrows in the day 12 images and show uneven fluorescence. […]
structure (smiles),measurement,setting,value
O=c1oc2cc(O)ccc2c2ccc(O)cc12 [urolithin A],protective effect against age-related skeletal muscle reduction (mean fragmentation scores),FIG. 13,significant protective effect
same,mitochondrial health (change of fragmentation score distribution with age),"days 2, 9, 12, FIG. 12",superior to that of the blank group (VC group)
